Data: patent publication US6677460B1, “Aromatic carboxylic acid bicyclic sulfur compounds” (Idemitsu Kosan Company, Limited, priority 1993, dated 2004)

Legend:
barnyard grass [1] = assay: Submergence soil treatment test (4); format: in vivo; conditions: twenty days after treatment; further: ranges in brackets are in %
Method: (§1) 90 Parts by weight of the above carrier and 10 parts by weight of each of Compounds obtained in the above Preparation Examples were uniformly pulverized and mixed to obtain herbicides. Further, for Herbicide Comparative Examples, comparative herbicides were prepared by uniformly pulverizing and mixing 90 parts by weight of the above carrier and 10 parts by weight of each of the following Compounds x, y, A, B and C.
(§2) (4) Biological Test (Submergence Soil Treatment Test, Herbicide Examples 5˜9 and Comparative Examples 5˜8 and Reference Example 1 and 2)
(§3) 1/15,500-are porcelain pots were filled with paddy field soil, and seeds of barnyard grass and umbrella plant were sown in a surface layer of the soil, and paddy rice at the 2-leaf stage was transplanted. Then, the weeds were treated by uniformly spraying a diluted solution of a predetermined amount of the herbicide prepared in the above (1) onto the water surface at the time of germination of the weeds, and then the pots were allowed to stand in a greenhouse while water was properly sprayed. […] The dosage of each herbicide is shown as an amount of the active ingredient per 10 areas. Further, air-dried weights were measured, and the herbicidal efficacy and the phytotoxicity to the paddy rice were shown as follows.

umbrella plant = assay: Submergence soil treatment test (4); format: in vivo; conditions: twenty days after treatment; further: ranges in brackets are in %
Method: as §1, §2, §3

paddy rice = assay: Submergence soil treatment test (4), phytotoxicity; format: in vivo; conditions: twenty days after treatment
Method: as §1, §2, §3

barnyard grass [2] = assay: Upland soil treatment test (5); format: in vivo; conditions: dosage 100 g a.i./hectare, 20th day after treatment; further: ranges in brackets are in %
Method: as §1
(§4) (5) Biological Test (Upland Soil Treatment Test, Herbicide Examples 10-26 and Comparative Example 9)
(§5) Seeds of weeds such as large crabgrass, barnyard grass, green foxtail, cocklebur, velvetleaf and slender amaranth and seeds of corn, wheat and barley were sown in 1/5,000-are Wagner pots filled with upland soil, and covered with upland soil. Then, a predetermined amount of the herbicide prepared in the above (1) was suspended in water and uniformly sprayed onto the soil surface. Thereafter, the plants were grown in the greenhouse, and on 20th day after the treatment, the herbicide was evaluated for herbicidal efficacy.
(§6) The dosage of each herbicide is indicated as an amount of the active ingredient per hectare. Further, air-dried weight were measured, and herbicidal efficacy and the pytotoxicity to corn are shown on the basis of the ratings described below.

green foxtail = assay: Upland soil treatment test (5); format: in vivo; conditions: dosage 100 g a.i./hectare, 20th day after treatment; further: ranges in brackets are in %
Method: as §1, §4, §5, §6

velvetleaf = assay: Upland soil treatment test (5); format: in vivo; conditions: dosage 100 g a.i./hectare, 20th day after treatment; further: ranges in brackets are in %
Method: as §1, §4, §5, §6

slender amaranth = assay: Upland soil treatment test (5); format: in vivo; conditions: dosage 100 g a.i./hectare, 20th day after treatment; further: ranges in brackets are in %
Method: as §1, §4, §5, §6

large crabgrass = assay: Upland soil treatment test (5); format: in vivo; conditions: dosage 100 g a.i./hectare, 20th day after treatment; further: ranges in brackets are in %
Method: as §1, §4, §5, §6

cocklebur = assay: Upland soil treatment test (5); format: in vivo; conditions: dosage 100 g a.i./hectare, 20th day after treatment; further: ranges in brackets are in %
Method: as §1, §4, §5, §6

corn = assay: Upland soil treatment test (5), phytotoxicity; format: in vivo; conditions: dosage 100 g a.i./hectare, 20th day after treatment
Method: as §1, §4, §5, §6

| SMILES | Herbicidal Effficacy barnyard grass (barnyard grass [1]; dosage 3 g a.i./10 are) | Herbicidal Effficacy barnyard grass (barnyard grass [1]; dosage 10 g a.i./10 are) | Herbicidal Effficacy umbrella plant (umbrella plant; dosage 3 g a.i./10 are) | Herbicidal Effficacy umbrella plant (umbrella plant; dosage 10 g a.i./10 are) | Phytotoxicity to paddy rice (paddy rice; dosage 3 g a.i./10 are) | Phytotoxicity to paddy rice (paddy rice; dosage 10 g a.i./10 are) | melting point | Herbicidal Efficacy barnyard grass (barnyard grass [2]) | Herbicidal Efficacy green foxtail (green foxtail) | Herbicidal Efficacy velvetleaf (velvetleaf) | Herbicidal Efficacy slender amaranth (slender amaranth) | Herbicidal Efficacy large crabgrass (large crabgrass) | Herbicidal Efficacy cocklebur (cocklebur) | Phyto-toxicity to corn (corn) | Herbicidal Effficacy barnyard grass (barnyard grass [1]; dosage 1 g a.i./10 are) | Herbicidal Effficacy umbrella plant (umbrella plant; dosage 1 g a.i./10 are) | Phytotoxicity to paddy rice (paddy rice; dosage 1 g a.i./10 are) |
| --- | --- | --- | --- | --- | --- | --- | --- | --- | --- | --- | --- | --- | --- | --- | --- | --- | --- |
| CCn1ncc(C(=O)c2cc(C)c3c(c2C)C(=NOC)CCS3(=O)=O)c1O [Comp'd C, reference compound] | 0 (81-100) | 4 (1-20) | 3 (21-40) | 5 (0) | 2 (90-94) | 5 | – | – | – | – | – | – | – | – | – | – | – |
| CCn1ncc(C(=O)c2cc(Cl)c3c(c2Cl)C(C)(C)CCS3)c1O [Compound 3] | – | – | – | – | – | – | 263.7 to 263.9 °C | – | – | – | – | – | – | – | – | – | – |
| CCn1ncc(C(=O)c2cc(C)c3c(c2C)C(C)(C)CCS3(=O)=O)c1OS(C)(=O)=O [Compound 7, 4,4,5,8-tetramethyl-6-(1-ethyl-5-methanesulfonyloxypyrazol-4-yl)carbonylthiochroman-1,1-dioxide] | – | – | – | – | – | – | 202.2 to 203.4 °C | 5 (0) | 4 (1-20) | 5 (0) | 5 (0) | 5 (0) | 5 (0) | 0 (100) | – | – | – |
| CCn1ncc(C(=O)c2cc(C)c3c(c2C)C(C)(C)CCS3)c1OS(=O)(=O)CC [Compound 8] | – | – | – | – | – | – | 164.1 to 165.7 °C | 4 (1-20) | 4 (1-20) | 5 (0) | – | 5 (0) | 5 (0) | 0 (100) | – | – | – |
| CCCS(=O)(=O)Oc1c(C(=O)c2cc(C)c3c(c2C)C(C)(C)CCS3(=O)=O)cnn1CC [Compound 9] | – | – | – | – | – | – | – | 5 (0) | 5 (0) | 5 (0) | 5 (0) | 5 (0) | 5 (0) | 0 (100) | – | – | – |
| CCCCS(=O)(=O)Oc1c(C(=O)c2cc(C)c3c(c2C)C(C)(C)CCS3(=O)=O)cnn1CC [Compound 10] | – | – | – | – | – | – | – | 5 (0) | 2 (41-60) | 5 (0) | 5 (0) | 5 (0) | 3 (21-40) | 0 (100) | 5 (0) | 5 (0) | 0 (100) |
| CCCCCCCCS(=O)(=O)Oc1c(C(=O)c2cc(C)c3c(c2C)C(C)(C)CCS3(=O)=O)cnn1CC [Compound 11] | – | – | – | – | – | – | – | 3 (21-40) | 2 (41-60) | 5 (0) | 1 (61-80) | 5 (0) | 3 (21-40) | 0 (100) | 5 (0) | 5 (0) | 0 (100) |
| CCn1ncc(C(=O)c2cc(C)c3c(c2C)C(C)(C)CCS3(=O)=O)c1OS(=O)(=O)c1ccc(C)cc1 [Compound 12] | – | – | – | – | – | – | – | 5 (0) | 1 (61-80) | 5 (0) | 5 (0) | 5 (0) | – | 0 (100) | – | – | – |
| CCn1ncc(C(=O)c2cc(C)c3c(c2C)C(C)(C)CCS3(=O)=O)c1OS(=O)(=O)c1ccc([N+](=O)[O-])cc1 [Compound 13] | – | – | – | – | – | – | – | 3 (21-40) | 2 (41-60) | 5 (0) | 2 (41-60) | 5 (0) | 5 (0) | 0 (100) | – | – | – |
| CCn1ncc(C(=O)c2cc(C)c3c(c2C)C(C)(C)CCS3(=O)=O)c1OS(=O)(=O)c1ccc(OC)cc1 [Compound 14] | – | – | – | – | – | – | – | 5 (0) | 2 (41-60) | 5 (0) | 5 (0) | 5 (0) | 5 (0) | 0 (100) | 5 (0) | 3 (21-40) | 0 (100) |
| CCn1ncc(C(=O)c2cc(C)c3c(c2C)C(C)(C)CCS3(=O)=O)c1OS(=O)(=O)c1ccccc1C [Compound 16] | 5 (0) | – | 5 (0) | – | 0 (100) | – | – | 5 (0) | 5 (0) | 5 (0) | 5 (0) | 5 (0) | 5 (0) | 0 (100) | 5 (0) | 2 (41-60) | 0 (100) |
| CCCCC(=O)Oc1c(C(=O)c2cc(C)c3c(c2C)C(C)(C)CCS3(=O)=O)cnn1CC [Compound 20] | – | – | – | – | – | – | – | 3 (21-40) | 2 (41-60) | 5 (0) | – | 5 (0) | 5 (0) | 0 (100) | – | – | – |
| CCCCCCC(=O)Oc1c(C(=O)c2cc(C)c3c(c2C)C(C)(C)CCS3(=O)=O)cnn1CC [Compound 21] | – | – | – | – | – | – | – | 5 (0) | 4 (1-20) | 5 (0) | 5 (0) | 5 (0) | 5 (0) | 0 (100) | – | – | – |
| CCn1ncc(C(=O)c2cc(C)c3c(c2C)C(C)(C)CCS3)c1OC(=O)c1ccc(Cl)cc1Cl [Compound 23] | – | – | – | – | – | – | 165.2 to 169 °C | – | – | – | – | – | – | – | – | – | – |
| CCn1ncc(C(=O)c2cc(C)c3c(c2C)C(C)(C)CCS3)c1OCC(C)=O [Compound 24] | – | – | – | – | – | – | – | 5 (0) | 2 (41-60) | 5 (0) | 5 (0) | 5 (0) | 5 (0) | 0 (100) | – | – | – |
| CCn1ncc(C(=O)c2cc(C)c3c(c2C)C(C)(C)CCS3(=O)=O)c1OCC(=O)c1ccccc1 [Compound 25] | – | – | – | – | – | – | – | 2 (41-60) | 2 (41-60) | 5 (0) | 5 (0) | 5 (0) | 5 (0) | 0 (100) | – | – | – |
